The source of these data is ChEMBL document CHEMBL1148573, “Design, synthesis, and binding affinities of potential positron emission tomography (PET) ligands for visualization of brain dopamine D3 receptors” (J Med Chem, 2006).

In general, Ki refers to a dissociation constant, usually derived from enzyme kinetics or from competition with a known ligand. Higher therefore signals a looser hold on the target. As a reminder, the Papp is a coefficient for how fast a substance crosses the barrier. Usually logP stands for a log measure of how a compound divides between an organic and an aqueous phase. What is called logD is lipophilicity at a set pH, counting ionised and neutral species.

For one data set, the target named is D(2) dopamine receptor (Homo sapiens, UniProt P14416). Nature of the data set: biochemical.
For a further data set, the target named is D(3) dopamine receptor (Homo sapiens, UniProt P35462). The data set can be described thus: biochemical.
Data set [1] in a line: Apparent permeability assessed by Caco-2 layer assay. Type of data set: ADME, cell-based. To be noted: human. On the technique in general: Caco-2 cells form a polarised layer with tight junctions and transporters.
The nature of data set [2]: Partition coefficient measured. Type of data set: physicochemical. To be noted: octanol/water.
Data set [3] is described as follows: Distribution coefficient at pH 7.4. The data set is classed as physicochemical. To be noted: octanol/water.

Chain of D(3) dopamine receptor (P35462 whole entry): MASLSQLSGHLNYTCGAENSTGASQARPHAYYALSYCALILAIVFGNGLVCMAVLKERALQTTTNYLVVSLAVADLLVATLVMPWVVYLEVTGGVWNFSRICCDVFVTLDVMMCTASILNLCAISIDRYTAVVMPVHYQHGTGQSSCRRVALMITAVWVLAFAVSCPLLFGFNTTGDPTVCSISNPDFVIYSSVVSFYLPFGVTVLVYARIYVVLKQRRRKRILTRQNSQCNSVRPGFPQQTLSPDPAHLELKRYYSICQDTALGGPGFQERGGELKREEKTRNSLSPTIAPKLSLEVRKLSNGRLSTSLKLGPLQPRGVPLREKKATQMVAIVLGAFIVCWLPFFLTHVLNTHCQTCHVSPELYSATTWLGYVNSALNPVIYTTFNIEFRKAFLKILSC
Chain of D(2) dopamine receptor (P14416 whole entry): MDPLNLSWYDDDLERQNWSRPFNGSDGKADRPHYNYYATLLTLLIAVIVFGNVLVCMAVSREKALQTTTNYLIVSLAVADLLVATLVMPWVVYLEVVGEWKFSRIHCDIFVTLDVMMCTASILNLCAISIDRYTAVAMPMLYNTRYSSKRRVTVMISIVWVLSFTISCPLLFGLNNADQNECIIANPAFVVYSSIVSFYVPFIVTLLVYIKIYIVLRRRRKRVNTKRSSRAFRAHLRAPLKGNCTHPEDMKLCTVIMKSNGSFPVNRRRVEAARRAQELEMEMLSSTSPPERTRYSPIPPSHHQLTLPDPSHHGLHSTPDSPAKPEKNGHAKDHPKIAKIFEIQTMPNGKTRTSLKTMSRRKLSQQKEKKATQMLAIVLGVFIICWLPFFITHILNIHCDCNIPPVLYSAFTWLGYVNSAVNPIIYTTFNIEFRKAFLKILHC
Description for D(2) dopamine receptor: Displacement of [3H]spiroperidol from cloned human dopamine receptor D2(long) expressed in rat C6 glioma cells
Description for D(3) dopamine receptor: Displacement of [3H]spiroperidol from cloned human dopamine receptor D3 expressed in CHO cells

Take `COc1ccccc1N1CCN(CCCCNC(=O)c2cc3cccc(OC)c3o2)CC1`: the values for the inhibition constant Ki on D(2) dopamine receptor and at D(3) dopamine receptor were 369 nM and 25.5 nM, respectively.
For `COc1cccc2cc(C(=O)NCCCCN3CCN(c4[nH]nc5ccccc45)CC3)oc12`, in that order: 56.6 nM and 127 nM.
For the compound `COc1cccc2cc(C(=O)NCCCCN3CCN(c4cccc5nccnc45)CC3)oc12`, the Ki at D(2) dopamine receptor is 1250 nM; on D(3) dopamine receptor, 262 nM.
For `COc1cccc2cc(C(=O)NCCCCN3CCN(c4nc5ccccc5[nH]4)CC3)oc12`, in that order: over 750 nM and over 8500 nM.
Consider `COc1ccc2onc(N3CCN(CCCCNC(=O)c4cc(-c5ccco5)n[nH]4)CC3)c2c1`, for which the Ki at D(2) dopamine receptor was over 750 nM; on D(3) dopamine receptor it was 21.4 nM. The Papp in data set [1] turned out to be 7.39 ×10⁻⁶ cm/s. This compound registered a logP in data set [2] of 2.98. The compound also gave a log distribution coefficient (logD) in data set [3] of 2.43.
For `COc1ccc2onc(N3CCN(CCCCNC(=O)c4cccc(N5CCOCC5)c4)CC3)c2c1`, the values for the Ki at D(2) dopamine receptor and at D(3) dopamine receptor were over 1000 nM and 1440 nM, respectively.
As for `COc1ccc2onc(N3CCN(CCCCNC(=O)c4ccc(-n5ccnc5)cc4)CC3)c2c1`, the Ki at D(2) dopamine receptor is over 750 nM; on D(3) dopamine receptor, 22.6 nM. The Papp in data set [1] came to 6.56 ×10⁻⁶ cm/s. Further, in data set [2], the logP amounted to 2.63. The compound also had a logD in data set [3] of 2.42.
For the compound `COc1ccc2onc(N3CCN(CCCCNC(=O)c4cccc(-n5ccnc5)c4)CC3)c2c1`, the Ki is over 1000 nM at D(2) dopamine receptor and 5540 nM on D(3) dopamine receptor.
Take `COc1ccc2onc(N3CCN(CCCCNC(=O)c4ccc(N5CCOCC5)cc4)CC3)c2c1`: the Ki was over 750 nM at D(2) dopamine receptor and 38 nM on D(3) dopamine receptor. Moreover, in data set [1], the Papp amounted to 36.3 ×10⁻⁶ cm/s. Also, the logP in data set [2] is 3.16. Also, the logD in data set [3] turned out to be 2.96.
`COc1ccc2ccnc(N3CCN(CCCCNC(=O)c4cc5cccc(OC)c5o4)CC3)c2c1` registered an inhibitory constant (Ki) at D(3) dopamine receptor of 102 nM. That is a sub-micromolar value.
On to `COc1ccccc1N1CCN(CCCCNC(=O)c2ccc3nonc3c2)CC1`, for which the inhibition constant (Ki) is over 1000 nM on D(2) dopamine receptor and 58.5 nM at D(3) dopamine receptor.
For `COc1ccc2onc(N3CCN(CCCCNC(=O)c4ccc5nonc5c4)CC3)c2c1`, in that order: over 750 nM and 85 nM.
As for `COc1ccc2onc(N3CCN(CCCCNC(=O)c4ccc5c(c4)OCO5)CC3)c2c1`, the Ki was over 750 nM on D(2) dopamine receptor and 118 nM at D(3) dopamine receptor.
The corresponding values for `COc1ccccc1N1CCN(CCCCNC(=O)c2ccc(N3CCOCC3)cc2)CC1` are 141 nM and 23.9 nM.
For `COc1ccc2onc(N3CCN(CCCCNC(=O)c4ccc5nccnc5c4)CC3)c2c1`, in that order: over 750 nM and 220 nM.
The corresponding values for `COc1ccccc1N1CCN(CCCCNC(=O)c2cc3ccccc3oc2=O)CC1` are 146 nM and 60.1 nM.
As for `COc1ccccc1N1CCN(CCCCNC(=O)c2ccc3c(c2)OCO3)CC1`, the Ki amounted to 86.2 nM at D(2) dopamine receptor and 14.7 nM at D(3) dopamine receptor.
For `COc1ccccc1N1CCN(CCCCNC(=O)c2ccc(-n3ccnc3)cc2)CC1`, in that order: 27.2 nM and 4.79 nM.
The corresponding values for `COc1ccc2onc(N3CCN(CCCCNC(=O)c4cccc(-c5ncccn5)c4)CC3)c2c1` are over 1000 nM and 1140 nM.
The corresponding values for `COc1ccccc1N1CCN(CCCCNC(=O)c2ccc3nccnc3c2)CC1` are 179 nM and 77.9 nM.
Take `COc1ccc2oc(N3CCN(CCCCNC(=O)c4cc5cccc(OC)c5o4)CC3)nc2c1`: the results for the Ki on D(2) dopamine receptor and on D(3) dopamine receptor were over 750 nM and over 8500 nM, respectively.
Regarding `COc1ccc2onc(N3CCN(CCCCNC(=O)c4cc5cccc(OC)c5o4)CC3)c2c1`, the values for the Ki at D(2) dopamine receptor and at D(3) dopamine receptor were over 750 nM and 98 nM, respectively.
For `COc1ccccc1N1CCN(CCCCNC(=O)c2cc(-c3ccco3)[nH]n2)CC1`, in that order: 130 nM and 19.3 nM.
On to `COc1ccc2onc(N3CCN(CCCCNC(=O)c4cccc(-c5noc(C)n5)c4)CC3)c2c1`, for which the Ki at D(2) dopamine receptor was over 1000 nM; at D(3) dopamine receptor, 1280 nM.
The corresponding values for `COc1ccc2onc(N3CCN(CCCCNC(=O)c4cc5ccccc5oc4=O)CC3)c2c1` are over 750 nM and over 2700 nM.
